These results are taken from patent US20260115177A1, “MEDICINAL PRODUCTS AND METHODS FOR THE ALLEVIATION OF CANCER IMMUNOTHERA-PY-ASSOCIATED CYTOKINE RELEASE SYNDROME” (POOLBEG PHARMA (UK) LIMITED, priority 2023, published 2026).

For assay [1], the system named is CD19+ cancer cells. Nature of the assay: CAR T cell killing of tumour cells in 24-hour co-culture (flow cytometry). The note with it: high dose only, CAR T to cancer cell ratio 1:1. Type of assay: cell-based, human. An excerpt:
Raji immortalized human B cell line CD19-expressing cancer cells (available from the American Type Culture Collection) are acquired and stable transfection of the Raji cell line is generated with an mCherry reporter protein to facilitate identification of the cancer cells within co-cultures by detection of the mCherry protein fluorescence by flow cytometry.
(§1) UR-13870, Ralimetinib or Acumapimod are each added to a culture of CD19+ cancer cells (using a micropipette to transfer the correct volume to achieve the desired final concentration in Table 2).
(§2) CAR T cells are then added to the same culture 5-10 minutes later. In brief, CAR T cell concentrations per ml are determined and used to aliquot the desired number of CAR T cells into the culture to achieve the described 1:1 CAR T to cancer cell ratio.
(§3) The co-culture containing CAR T cells and tumour cells is swirled gently to ensure homogenous dispersion of cells throughout the vessel. The resultant co-culture is incubated for 24 to 96 hours in a closed incubator at 37° C. with 5% CO2 and a suitably humid atmosphere.
Tumour cell death is observed by examining relative CAR T cell:tumour cell numbers by flow cytometry following 24 hour co-culture, as shown in FIG. 7.

Assay [2] deals with CAR T cells. Description: T cell exhaustion markers TIM3 and LAG3 on CAR T cells in co-culture (flow cytometry). Type of assay: cell-based, human. The following applies: CAR T:tumour cell co-culture, concentrations of Table 2. The procedure: as §1, §2, §3
Both T cell surface markers T cell immunoglobulin and mucin domain-containing protein 3 (TIM3/CD366) and Lymphocyte Activation Gene 3 (LAG3/CD223) are associated with T cell exhaustion and disease progression during immunotherapy treatment. Advantageously, all of UR-13870, Ralimetinib and Acumapimod reduce both the number of TIM3+ CAR T cells, and the number of LAG3+ CAR T cells. […] For LAG3+, the results for Ralimetinib at a 5 μM concentration appear to have been affected by experimental failure, and these may be disregarded accordingly.

In assay [3] the test system is PBMC humanized NSG-MHC I/II double knock-out mice with Raji-Luc CD19-expressing cancer cells. Nature of the assay: In vivo (murine) model using anti-CD28 antibody for CRS induction. Also noted: species or system mouse. An excerpt:
An outline of the timeline of the model is provided in FIG. 19; it commences on Study Day 0 and ends on Study Day 10. […] It thus models the effect of administering a p38 MAP kinase inhibitor prior to the onset of CRS in accordance with the present disclosure.
Anti-CD28 antibody acts as a super-agonist of T cells (i.e., strongly activates T cells) resulting in T cell-mediated tumour cell death, with a rapid consequent release of cytokines and knock-on effects for monocytes and endothelial cells; thus modelling CRS induced by various different types of T cell-involving cancer immunotherapy.
Thus, on Study Day 0, 30 female 6- to 8-week-old NSG-(KbDb)null (IA)null mice are irradiated at 100 cGy. Approximately 4 hours later, on the same day (Study Day 0) all mice are humanised by IV dosing with 15×10^6 human peripheral blood mononuclear cells (PBMCs).
On Study Day 5, all mice are intravenously dosed with 0.25×10^6 Raji-Luc CD19-expressing cancer cells (a Raji wild-type cell line with stable and high expression of luciferase, enabling detection of cancer burden by […]). Approximately 4 hours later, mice are imaged using in vivo […] imaging (IVIS). For IVIS, mice are IP injected with 150 mg/kg D-Luciferin. 10 minutes after the D-Luciferin injection, mice are imaged dorsal and ventral; auto exposure) using an IVIS Lumina system (obtainable from PerkinElmer of Chalfont Road. Seer Green, Beaconsfield, HP9 2FX, UK). Regions of interest (ROI) are drawn for each mouse to capture its whole body, and total flux (p/s) is reported. Tumour burden continues to be monitored by IVIS twice per week, starting on Study Day 5, until the end of the study. Daily clinical observation continues throughout the study, including observation of CRS, CRS being scored as follows:
On Study Day 6, 25 of the 30 mice are treated with 1 mg/kg anti-CD28.
As a control, a group consisting of the 5 remaining mice (“Group 1”) are not administered anti-CD28. Beginning on Study Day 4 and ending on Study Day 10, Group 1 receive treatment with 0.5% (w:v) HPMC, 0.1% (w:v) Tween 80 in sWFI (vehicle/control), administered BID at 5 mL/kg.
The 25 mice administered anti-CD28 are divided into groups of 5 mice per group. Administration of a control drug (Humira), vehicle or UR-13870 is carried out in accordance with the following protocol: • Group 2—Vehicle only, BID, beginning on Study Day 4 and ending on Study Day 10; • Group 3—UR-13870 (formulated in vehicle), 2 mg/kg, twice daily (BID) beginning on Study Day 4 and ending on Study Day 10; • Group 4—UR-13870 (formulated in vehicle), 10 mg/kg, twice daily (BID) beginning on Study Day 4 and ending on Study Day 10; • Group 5—UR-13870 (formulated in vehicle), 25 mg/kg, twice daily (BID) beginning on Study Day 4 and ending on Study Day 10; and • Group 6—Humira (formulated in PBS) (further, positive control) 5 mg/kg, once daily beginning on Study Day 4 and ending on Study Day 10.
Dosing of UR-13870 or vehicle is by subcutaneous injection. Subcutaneous injection sites are rotated for each dose (rotating among right flank, left flank, right inguinal region, left inguinal region). For UR-13870 and vehicle, AM and PM (BID) doses are scheduled at least 6 hours apart. Dosing of Humira is by intraperitoneal injection.
On Study Days 6, 9 and 10, blood is collected from each of the 30 mice in Groups 1-6 (a 50-200 μl blood sample from each mouse, each time), for flow cytometry analysis, including analysis of CD19+ cancer cells per ml; and cytokine measurement. It should be noted that, where relevant to BID dosed groups, blood collection is carried out between AM and PM dosing.
All mice in Groups 1-6 are euthanized by CO2 asphyxiation on Study Day 10. […]

In the case of `OCCCn1cc2c(-c3ccc(F)cc3)c(-c3ccncc3)c(-c3ccc(F)cc3)nc2n1` [UR-13870, 6-bis(4-fluorophenyl)-5-(4-pyridinyl)-2Hpyrazolo[3,4-b]pyridine-2-propanol], the “CAR T cell-induced cancer cell death (percentage of residual tumour cells in the co-culture)” value in assay [1] is “maintain CAR T cell-induced cancer cell death”. Further, the “number of TIM3+ CAR T cells” value in assay [2] is recorded as “reduce”. Besides, in assay [2] (Ralimetinib 5 μM results to be disregarded), the “number of LAG3+ CAR T cells” value was “reduce”. Moreover, in assay [3] (Day 5 to Day 7), the “tumour cell proliferation (tumour burden by IVIS)” value is reported as “does not increase”. For the same compound, in assay [3] (Day 5 to Day 7, tumour burden by IVIS), the “T cell mediated cancer cell death” value is “maintains”. In addition, in assay [3] (anti-CD28 1 mg/kg, UR-13870 2, 10, 25 mg/kg BID s.c., Humira 5 mg/kg once daily i.p., Study Day 4 to 10), the CRS scores result is on record as “significantly reduces”. Further, in assay [3] (blood serum, Luminex), the IFNγ result was “reduced”, the IL-2 result is “reduced”, the IL-4 entry is “reduced” and the IL-6 entry is reported as “reduced”. For the same compound, in assay [3] (blood serum, Luminex), the IL-8 result is “reduced”, the IL-10 entry is on record as “reduced”, the MIP-1α entry is reported as “reduced” and the TNF a entry is recorded as “reduced”. Further, the “hCD45+ CD3+ hCD4+ cells/μl” value in assay [3] (blood, day 9) is listed as “Neither UR-13870 or Humira had a significant impact”. In assay [3] (blood, days 9 and 10), the “hCD45+ cells/μl” value is “Neither UR-13870 or Humira had a significant impact” and the “hCD45+ hCD3+ cells/μl” value was “Neither UR-13870 or Humira had a significant impact”. Also, in assay [3] (blood, flow cytometry), the “proliferation of tumour cells (counts of CD19+ cancer cells per ml)” value is “neither UR-13870 or Humira increased proliferation of tumour cells”. In addition, in assay [3] (days 9 and 10 (especially day 10)), the “mean CD19+ cancer cells per ml compared to CD28 stimulation only” value is “downward trend”.
